Measurements reported in patent US20060063720A1, “Oxaliplatin solution concentrate” (priority 2004, published 2006).

Legend:
[1] = Solubility of oxaliplatin in aqueous carbohydrate solutions (saturated solution supernatant, HPLC; pH of saturated solution); settings: for Oxaliplatin concentration of the saturated solution: pH not adjusted; for pH of the saturated solution: oxaliplatin-saturated
[2] = cited from earlier work

O=C1[O][Pt-2]2([NH2+]C3CCCC[C@H]3[NH2+]2)[O]C1=O (stereo partly drawn) [Oxaliplatin, cis-oxalato-(trans-1,2-cyclohexanediamine)-platinum(II)]
Oxaliplatin concentration of the saturated solution ([1]; 0% Glucose): 7.66 mg/mL | Oxaliplatin concentration of the saturated solution ([1]; 5% Glucose): 8.14 mg/mL | Oxaliplatin concentration of the saturated solution ([1]; 10% Glucose): 10.74 mg/mL | Oxaliplatin concentration of the saturated solution ([1]; 10% Lactose): 10.12 mg/mL | Oxaliplatin concentration of the saturated solution ([1]; 10% Trehalose): 10.32 mg/mL | Oxaliplatin concentration of the saturated solution ([1]; 20% Glucose): 11.85 mg/mL | Oxaliplatin concentration of the saturated solution ([1]; 25% Dextran 10): 10.90 mg/mL | Oxaliplatin concentration of the saturated solution ([1]; 25% Dextran 40): 10.85 mg/mL | Oxaliplatin concentration of the saturated solution ([1]; 25% Dextran 70): 10.90 mg/mL | Oxaliplatin concentration of the saturated solution ([1]; 25% Galactose): 11.53 mg/mL | Oxaliplatin concentration of the saturated solution ([1]; 30% Glucose): 12.66 mg/mL | Oxaliplatin concentration of the saturated solution ([1]; 40% Glucose): 13.54 mg/mL | Oxaliplatin concentration of the saturated solution ([1]; 50% Fructose): 12.56 mg/mL | Oxaliplatin concentration of the saturated solution ([1]; 50% Maltose): 17.83 mg/mL | solubility ([1]; aqueous solution, 25 °C, water): 7000 to 8000 µg/mL | solubility ([1]; aqueous solutions with solubilizers, aqueous with cosolvent or surfactant or cyclodextrin): > 7000 µg/mL | Oxaliplatin concentration obtained with adjuvants ([1]; glucose, maltose, fructose, galactose, dextran 10, 40, 70, polyethylene glycol 200, 300, 400 and 600 as adjuvants): more than 7 mg/ml solvent | pH of the saturated solution ([1]; 0% Glucose): pH 6.1 | pH of the saturated solution ([1]; 5% Glucose): pH 5.9 | pH of the saturated solution ([1]; 10% Glucose): pH 5.8 | pH of the saturated solution ([1]; 10% Lactose): pH 4.3 | pH of the saturated solution ([1]; 10% Trehalose): pH 4.6 | pH of the saturated solution ([1]; 20% Glucose): pH 5.7 | pH of the saturated solution ([1]; 25% Dextran 10): pH 4.8 | pH of the saturated solution ([1]; 25% Dextran 40): pH 4.2 | pH of the saturated solution ([1]; 25% Dextran 70): pH 4.1 | pH of the saturated solution ([1]; 25% Galactose): pH 6.3 | pH of the saturated solution ([1]; 30% Glucose): pH 5.6 | pH of the saturated solution ([1]; 40% Glucose): pH 5.6 | pH of the saturated solution ([1]; 50% Fructose): pH 4.7 | pH of the saturated solution ([1]; 50% Maltose): pH 3.7 | solubility ([1]; water): ~7500 µg/mL | Maximum concentration of oxaliplatin in water ([1]; with additional dissolved tonic, pH-adjusting, buffering or preserving adjuvants): 7 mg/mL | Stability in water ([2]; at least at concentrations below 1 mg/ml): not very stable | Solubility in ethanol ([2]; ethanol): practically insoluble | Solubility in methanol ([2]; methanol): scarcely soluble | Solubility in water ([2]; water): soluble
